We go through three compounds from patent US20210155611A1, “THE SALTS OF A COMPOUND AND THE CRYSTALLINE FORMS THEREOF” (Flutchison Medipharma Limited, priority 2017, published 2021).

By solubility is commonly meant how much of the substance goes into solution per volume.

Type in all cases: physicochemical
A short description of data set [1]: Solubility test of Form I and free base in different dissolution media. The following applies: for solubility at 24 h: thermodynamic from solid, saturated for 24 hours. The protocol:
Determination method: excess amount of Form I sample of compound of Formula A and its free base (compound 4-ethyl-N-(4-((3-ethynylphenyl)amino)-7-methoxyquinazolin-6-yl) piperazine-1-carboxamide) were suspended in different dissolution media respectively, and saturated for 24 hours under shaking at constant temperature, then filtered. The filtrates were used for determining solubility of the samples. The buffers of different pH, simulated gastric fluid, and simulated intestinal fluid were prepared according to the US pharmacopeia (USP40-NF35).

Data set [2] can be described thus: Hygroscopicity of Form I. The protocol: Determination method: the test sample of Form I was weighed and placed on a culture dish, which was uncovered and placed in a sealed clean container with the relative humidity of 92.5%. Then the container was placed at room temperature for 10 days. Then sampled, weighed the sample after placed for 10 days, and compared with the weight of the sample before the test. Thereby the percentage of weight gain by hygroscopicity of the sample was calculated. The crystalline form was also investigated (using X-ray powder diffraction analysis).

Data set [3] in a line: Stability of Form I under high temperature, high humidity and illumination conditions. The following applies: for Purity A %: HPLC. The method, then:
Determination method: the test sample of Form I of compound of Formula A was placed on a culture dish, which was uncovered and placed in sealed clean containers. The containers were placed under a temperature of 60° C. and an illumination of 4500 lx±500 lx respectively for 10 days; or the containers were placed under a temperature of 25° C. and a relative humidity of 92.5%%±5% and under a temperature of 40° C. and a relative humidity of 75%±5% respectively for 2 weeks.
Then sampled and investigated for the purity (using HPLC analysis) and crystalline form (using X-ray powder diffraction analysis) of the sample.

Where [4] appears, read: aqueous buffer, pH 1.2 buffer, 25° C.
Where [5] appears, read: aqueous buffer, pH 2.1 buffer, 25° C.
[6] abbreviates: aqueous buffer, pH 4.5 buffer, 25° C.
[7] abbreviates: aqueous buffer, pH 6.8 buffer, 25° C.
The mark [8] stands for this setting: aqueous buffer, pH 7.4 buffer, 25° C.
Setting [9] is: fassgf or other biorelevant, Simulated intestinal fluid (SIF), 20° C.
Where [10] appears, read: Simulated gastric fluid (SGF), 20° C.

SMILES strings stand for the structures. Values after ≈ are worked out from the molar mass of the structure shown. “Also recorded” adds a separate entry of the source.

On to `C#Cc1cccc(Nc2ncnc3cc(OC)c(NC(=O)N4CCN(CC)CC4)cc23)c1.O=C(O)CCC(=O)O` [Form I, 4-ethyl-N-(4-((3-ethynylphenyl)amino)-7-methoxyquinazolin-6-yl)piperazine-1-carboxamide succinate], for which the solubility at 24 h stood at 103000 µg/mL in data set [1] (setting [4]); 15500 µg/mL in data set [1] (setting [5]); 10000 µg/mL in data set [1] (setting [6]); 253 µg/mL in data set [1] (setting [7]); 46.1 µg/mL in data set [1] (setting [8]); 0.5 µg/mL in data set [1] (aqueous buffer, pH 8.0 buffer, 25° C.). Moreover, the solubility at 24 h in data set [1] (setting [9]) was 253 µg/mL; in data set [1] (Distilled water, 20° C.), 803 µg/mL; in data set [1] (setting [10]), 103000 µg/mL. The “Crystal form after 10 days” value in data set [2] (92.5% RH, 25° C., 10 days, X-ray powder diffraction) was “not changed”. For the same compound, in data set [2] (92.5% RH, 25° C., 10 days, succinate), the “Weight gain after 10 days (%)” value came to 0.01%. Besides, the “Hygroscopicity, conclusion in words” value in data set [2] (high humidity condition for 10 days) is given as “non-hygroscopic”. The “Purity A %” value in data set [3] (0 day (Table 1)) was determined as 99.37%; in data set [3] (0 day (Table 2)), 98.98%; in data set [3] (60° C., 10 days), 98.68%; in data set [3] (75 ± 5% RH/40° C., 2 weeks), 99.08%; in data set [3] (92.5 ± 5% RH/25° C., 2 weeks) it was 98.98%; in data set [3] (4500 lx ± 500 lx, 10 days) it was 99.29%. Besides, the “Stability (chemical purity and crystalline form), conclusion in words” value in data set [3] (high temperature and illumination 10 days, high humidity 2 weeks) was “stable”.

On to `C#Cc1cccc(Nc2ncnc3cc(OC)c(NC(=O)N4CCN(CC)CC4)cc23)c1.O=C(O)CCC(=O)O` [compound of Formula A, 4-ethyl-N-(4-((3-ethynylphenyl)amino)-7-methoxyquinazolin-6-yl)piperazine-1-carboxamide succinate], for which the “Solubility compared with that of the free base, in words” value in data set [1] (data of Table 4, succinate) was “significantly increased; also recorded: significantly higher”.

With `C#Cc1cccc(Nc2ncnc3cc(OC)c(NC(=O)N4CCN(CC)CC4)cc23)c1` [free base, 4-ethyl-N-(4-((3-ethynylphenyl)amino)-7-methoxyquinazolin-6-yl)piperazine-1-carboxamide], the solubility at 24 h in data set [1] (setting [4]) is 38500 µg/mL (≈ 89400 µM); in data set [1] (setting [5]), 5450 µg/mL (≈ 12700 µM); in data set [1] (setting [6]), 5.21 µg/mL (≈ 12.1 µM); in data set [1] (setting [7]), 0.84 µg/mL (≈ 1.95 µM); in data set [1] (setting [8]), 0.41 µg/mL (≈ 0.952 µM); in data set [1] (setting [9]), 0.84 µg/mL (≈ 1.95 µM). The solubility at 24 h was 1 µg/mL (≈ 2.32 µM) in data set [1] (Distilled water, 20° C.) and 38500 µg/mL (≈ 89400 µM) in data set [1] (setting [10]).
